# Data reported in the supplement of paper PMC11208160.
# Experiment: recombinant UMI read abundance after kanamycin selection (control-corrected) (log10(CPM+1)); higher = more efficient recombination; extreme values may be limits of the assay; sequences stand for … in AGTGCAGAGAAAATCGGCCAGTTTTCTCTGCCTGCAGTCCGCATGCCGTGGGACCCCTTGGGTTCTAACCTGTTGCCTAGATTTATGCAGCGGACTGCCTTTCTCCCAAAGTGATAAACCGG…AGGTTGGTTTCACT; site = the 11-nt donor
# Outline: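 After plating on IPTG (0.07 mM) plus kanamycin, or unselected, in two replicates, recombinant UMIs were PCR-amplified across the donor–target junction and sequenced. The cells were Escherichia coli co-electroporated with a UMI-tagged donor and donor-binding-loop pair library and a target plasmid with a fixed target and T7-inducible IS621 bridge recombinase. Values are log10(CPM+1), with CPM averaged over replicates and scaled by control-derived factors.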
row,Sequence,recombinant UMI read abundance (log10)
1,AGGTTCCCATGGACCGGTTTTCCCGGTAATCCGTATTTGTG (site AGGTTCCCTAA),0.00843
2,GTACTCGCATGGACCGGTTTTCCCGGTAATCCGTATTTGCG (site GTATTCGCTCG),0.00972
3,GGTCGTCCATGGACCGGTTTTCCCGGTAATCCGTATTTGTA (site GGTCGTCCTTA),0.0245
4,CTGTCGACATGGACCGGTTTTCCCGGTAATCCGTATTTGGT (site CTGTCGACTAC),0.884
5,GTGTATGCATGGACCGGTTTTCCCGGTAATCCGTATTTGGT (site GTGCATGCTAC),1.24
6,GATAAACCATGGACCGGTTTTCCCGGTAATCCGTATTTGGT (site GACAAACCTAC),0
7,ACTTATGCATGGACCGGTTTTCCCGGTAATCCGTATTTGGA (site ACTTATGCTTC),1.41
8,GTTAGTACATGGACCGGTTTTCCCGGTAATCCGTATTTGGC (site GTTAGCACTGC),0
9,GATTATCCATGGACCGGTTTTCCCGGTAATCCGTATTTGCT (site AATTATCCTAG),0
10,CCTAGTGCATGGACCGGTTTTCCCGGTAATCCGTATTTGGT (site ACTAGTGCTAC),0.00584
11,GTTGGTACATGGACCGGTTTTCCCGGTAATCCGTATTTGAC (site GTAGGTACTGT),1.9
12,GTTTGCACATGGACCGGTTTTCCCGGTAATCCGTATTTGTA (site GTTTGCACTTA),0.721
13,CACCCTACATGGACCGGTTTTCCCGGTAATCCGTATTTGAG (site CTCCCTACTCT),0.0244
14,GCGCTCACATGGACCGGTTTTCCCGGTAATCCGTATTTGAT (site GCGCTCACTAT),2.21
15,CCACGGCCATGGACCGGTTTTCCCGGTAATCCGTATTTGTA (site CCACGGCCTTA),0
16,CACCCTACATGGACCGGTTTTCCCGGTAATCCGTATTTGAG (site CGCCCTACTCT),0.0118
17,GATTGGACATGGACCGGTTTTCCCGGTAATCCGTATTTGAC (site GATTGGACTTT),0.0228
18,TGGAACCCATGGACCGGTTTTCCCGGTAATCCGTATTTGTT (site TGGAACCCTAA),1.15
19,CCCCACTCATGGACCGGTTTTCCCGGTAATCCGTATTTGAC (site CCCCACTCTGT),1.04
20,CGTTTTGCATGGACCGGTTTTCCCGGTAATCCGTATTTGCT (site CGTTTTGCTAG),0.543
21,TGTTCTCCATGGACCGGTTTTCCCGGTAATCCGTATTTGTA (site TGTTCACCTTA),0.0104
22,TGCTAGGCATGGACCGGTTTTCCCGGTAATCCGTATTTGGC (site TGCTAGGCTTC),0.0105
23,CAAGTAACATGGACCGGTTTTCCCGGTAATCCGTATTTGGG (site CAAGTAACTCC),1.53
24,TTCTCGACATGGACCGGTTTTCCCGGTAATCCGTATTTGTC (site TTCTCGACTGA),0
25,TTATGCACATGGACCGGTTTTCCCGGTAATCCGTATTTGTA (site CTATGCACTTA),0.34

row,Sequence,recombinant UMI read abundance (log10)
1,AAAACCACATGGACCGGTTTTCCCGGTAATCCGTATTTGCT (site AAAACCACTAG),1.82
2,ACTGCAGCATGGACCGGTTTTCCCGGTAATCCGTATTTGCA (site ACTGCAGCTTG),1.21
3,ACCTCTACATGGACCGGTTTTCCCGGTAATCCGTATTTGTG (site ACGTCTACTCA),0.0131
4,GGATGCACATGGACCGGTTTTCCCGGTAATCCGTATTTGTA (site GGATGCACTTA),1.62
5,TACAATTCATGGACCGGTTTTCCCGGTAATCCGTATTTGCC (site TACAATTCTGG),0.00632
6,GTGCTCACATGGACCGGTTTTCCCGGTAATCCGTATTTGAT (site GCGCTCACTAT),0.322
7,CCATCTACATGGACCGGTTTTCCCGGTAATCCGTATTTGTG (site TCATCTACTCA),0
8,ATGTTACCATGGACCGGTTTTCCCGGTAATCCGTATTTGGT (site ATGTTACCTAC),0.0171
9,CTACTAACATGGACCGGTTTTCCCGGTAATCCGTATTTGGA (site CTACTTACTTC),0.176
10,TTATCTGCATGGACCGGTTTTCCCGGTAATCCGTATTTGAT (site TTATCTGCTAT),0.557
11,AGCCTTTCATGGACCGGTTTTCCCGGTAATCCGTATTTGAC (site AGCCTGTCTGT),0
12,AGCCGTACATGGACCGGTTTTCCCGGTAATCCGTATTTGCT (site TGCCGTACTAG),1.18
13,TCTACCGCATGGACCGGTTTTCCCGGTAATCCGTATTTGCG (site TCGACCGCTCG),0.0889
14,TACTTGTCATGGACCGGTTTTCCCGGTAATCCGTATTTGGG (site TACTTGTCTCC),0.17
15,GCTTGCCCATGGACCGGTTTTCCCGGTAATCCGTATTTGAT (site GCTAGCCCTAT),0.00265
16,CGAGTGGCATGGACCGGTTTTCCCGGTAATCCGTATTTGGT (site TGAGTGGCTAC),0.0187
17,TTAAGAGCATGGACCGGTTTTCCCGGTAATCCGTATTTGCA (site TTAAGAGCTTG),2.63
18,TTGGTCCCATGGACCGGTTTTCCCGGTAATCCGTATTTGAA (site TTGGTCCCTTT),0.00683
19,GAATTCCCATGGACCGGTTTTCCCGGTAATCCGTATTTGCT (site AAATTCCCTAG),0
20,GTAGTCGCATGGACCGGTTTTCCCGGTAATCCGTATTTGCG (site GCAGTCGCTCG),0.162
21,TTGATAACATGGACCGGTTTTCCCGGTAATCCGTATTTGGG (site TTGATAACTCC),0.00616
22,CGGACAGCATGGACCGGTTTTCCCGGTAATCCGTATTTGCT (site CGGACACCTAG),0
23,AGGACTACATGGACCGGTTTTCCCGGTAATCCGTATTTGAC (site AGGTCTACTGT),1.2
24,CGCCAGACATGGACCGGTTTTCCCGGTAATCCGTATTTGCC (site CGCCAGACTGG),1.38
25,CCGTTTACATGGACCGGTTTTCCCGGTAATCCGTATTTGCT (site CCATTTACTAG),0

row,Sequence,recombinant UMI read abundance (log10)
1,CTCCCTACATGGACCGGTTTTCCCGGTAATCCGTATTTGGG (site CTCCCTACTCT),0.0127
2,CTGGTAACATGGACCGGTTTTCCCGGTAATCCGTATTTGCA (site CTGGTAACTTG),2.06
3,TCCTGCCCATGGACCGGTTTTCCCGGTAATCCGTATTTGCT (site TCCTGCCCTAG),0
4,TGCCAGGCATGGACCGGTTTTCCCGGTAATCCGTATTTGGT (site TGCGAGGCTAC),0.0315
5,CGGTAGTCATGGACCGGTTTTCCCGGTAATCCGTATTTGCC (site CGGCAGTCTGG),1.47
6,GTTGGTACATGGACCGGTTTTCCCGGTAATCCGTATTTGAC (site GTCGGTACTGT),2.31
7,GACTCCTCATGGACCGGTTTTCCCGGTAATCCGTATTTGCC (site TACTCCTCTGG),2.07
8,TCTAGTGCATGGACCGGTTTTCCCGGTAATCCGTATTTGGT (site ACTAGTGCTAC),0.0111
9,GTAGTCGCATGGACCGGTTTTCCCGGTAATCCGTATTTGCG (site GTAGTGGCTCG),0.013
10,GATGATCCATGGACCGGTTTTCCCGGTAATCCGTATTTGCT (site GATTATCCTAG),0
11,TATTTGCCATGGACCGGTTTTCCCGGTAATCCGTATTTGTG (site TATTTGCCTCA),0.0197
12,AACCCTCCATGGACCGGTTTTCCCGGTAATCCGTATTTGAT (site AACCGTCCTAT),0.015
13,ACAGTATCATGGACCGGTTTTCCCGGTAATCCGTATTTGCA (site TCGGTATCTTG),0.0345
14,CGGGAGGCATGGACCGGTTTTCCCGGTAATCCGTATTTGCC (site CGGGAGGCTGG),0.183
15,GATTGGACATGGACCGGTTTTCCCGGTAATCCGTATTTGAA (site GATTGGACTGT),0
16,ACAGTATCATGGACCGGTTTTCCCGGTAATCCGTATTTGCA (site ACAATATCTAG),0.00607
17,CGTTTGGCATGGACCGGTTTTCCCGGTAATCCGTATTTGTT (site CGTTTGGCTAA),0.693
18,TAGGCATCATGGACCGGTTTTCCCGGTAATCCGTATTTGCG (site TAGGCATCTCG),1.31
19,CCATCCTCATGGACCGGTTTTCCCGGTAATCCGTATTTGGT (site CCATCCTCTAC),1.38
20,CTGCAAACATGGACCGGTTTTCCCGGTAATCCGTATTTGCA (site CTGGAAACTTG),0
21,CGATAATCATGGACCGGTTTTCCCGGTAATCCGTATTTGCT (site CGATGATCTAG),0
22,AGCGCAGCATGGACCGGTTTTCCCGGTAATCCGTATTTGGG (site AGCTCAGCTCC),0.0119
23,CCCTAGCCATGGACCGGTTTTCCCGGTAATCCGTATTTGCC (site CCTTAGCCTGG),0
24,ACGCGAACATGGACCGGTTTTCCCGGTAATCCGTATTTGTC (site ACGCGAACTGA),2.38
25,GCTTGCCCATGGACCGGTTTTCCCGGTAATCCGTATTTGAT (site ACTTGCCCTAT),0
